Experimental data published in US20220233558A1, “METHOD AND COMPOSITION FOR PREDICTING EFFICACY OF BCL2/BCL-XL INHIBITORS ON CANCER” (Ascentage Pharma (Suzhou) Co., Ltd., priority 2019, published 2022).

What was measured:
cancer cell lines = experiment: Cell growth inhibitory activity in vitro; assay type: cell-based; conditions: subset of cancer cell lines
caspase-3 and PARP = experiment: Cleavage of caspase-3 and PARP (apoptosis markers); assay type: cell-based; conditions: in cancer cells and in xenograft tumor tissues
BCL-XL:BIM complex [1] = target: T1, BCL-XL:BIM complex (Homo sapiens, UniProt Q07817); experiment: MSD assay of BCL-XL complexes in gastric and esophageal cancer PDX models; assay type: in vivo; design: endogenous in cells
T1 sequence (Q07817 whole entry, one chain of several): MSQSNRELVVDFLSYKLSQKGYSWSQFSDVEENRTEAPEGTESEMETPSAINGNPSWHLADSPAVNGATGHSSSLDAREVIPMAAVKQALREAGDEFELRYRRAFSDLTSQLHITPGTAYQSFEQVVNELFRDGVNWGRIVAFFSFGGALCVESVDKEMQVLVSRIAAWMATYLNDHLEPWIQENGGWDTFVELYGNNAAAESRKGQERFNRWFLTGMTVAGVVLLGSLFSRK
Protocol: MSD advanced ELISA is a method similar to enzyme-linked immunosorbent assay (ELISA) except MSD uses electrochemiluminescence (ECL) as a detection technique while ELISA uses a colormetric reaction. In general, a solution (e.g. cell lysate) containing the protein/complex of interest is added to a substrate (e.g., wells in a plate) coated with a capture antibody specifically binding to a protein of interest. After washing, a second antibody specifically binding to a partner protein that binds to the protein of interest is added. The second antibody (or an antibody binding to the second antibody) is linked to an ECL agent, e.g. a ruthenium (Ru) metal ion, and the substrate contains an electrode. In the presence of the partner protein/protein complex, the second antibody binds to the protein complex, and the ruthenium ion will be close enough proximity to the electrode to trigger an oxidation-reduction reaction that produces light which can be detected by a CCD camera. […]
PDX models (including 8 gastric cancers and 3 esophageal cancers) were selected for trials with BCL-2/BCL-XL dual inhibitor Compound A. Models were treated with 100 mg/kg twice weekly dosing schedule for three weeks, and tumor tissues were harvested for complexes analysis (specified in the figure panels) with MSD methods. […] TGI for each animal was calculated.

BCL-xL = BCL-xL (Homo sapiens, UniProt Q07817); experiment: Binding affinity to BCL-xL protein
Sequence of BCL-xL (Q07817 whole entry): as the sequence (Q07817 whole entry, one chain of several) above

BCL-w = target: T2, BCL-w (Homo sapiens, UniProt Q92843); experiment: Binding affinity to BCL-w protein
T2 sequence (Q92843 1-193): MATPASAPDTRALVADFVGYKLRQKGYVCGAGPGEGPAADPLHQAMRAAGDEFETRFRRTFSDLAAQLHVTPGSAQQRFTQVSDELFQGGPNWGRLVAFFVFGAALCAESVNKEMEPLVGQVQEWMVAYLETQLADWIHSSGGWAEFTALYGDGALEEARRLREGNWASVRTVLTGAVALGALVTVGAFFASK

BCL-2 = BCL-2 (Homo sapiens, UniProt P10415); experiment: Binding affinity to BCL-2 protein
Sequence of BCL-2 (P10415 whole entry): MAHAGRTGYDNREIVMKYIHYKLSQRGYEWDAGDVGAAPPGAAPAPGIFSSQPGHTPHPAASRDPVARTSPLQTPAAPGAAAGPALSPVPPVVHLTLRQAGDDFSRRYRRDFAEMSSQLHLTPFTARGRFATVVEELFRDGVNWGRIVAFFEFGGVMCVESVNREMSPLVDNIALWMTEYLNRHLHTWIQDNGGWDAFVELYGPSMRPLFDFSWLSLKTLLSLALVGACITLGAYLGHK

Mcl-1 protein = Mcl-1 protein (Homo sapiens, UniProt Q07820); experiment: Binding affinity to Mcl-1 protein
Sequence of Mcl-1 protein (Q07820 whole entry): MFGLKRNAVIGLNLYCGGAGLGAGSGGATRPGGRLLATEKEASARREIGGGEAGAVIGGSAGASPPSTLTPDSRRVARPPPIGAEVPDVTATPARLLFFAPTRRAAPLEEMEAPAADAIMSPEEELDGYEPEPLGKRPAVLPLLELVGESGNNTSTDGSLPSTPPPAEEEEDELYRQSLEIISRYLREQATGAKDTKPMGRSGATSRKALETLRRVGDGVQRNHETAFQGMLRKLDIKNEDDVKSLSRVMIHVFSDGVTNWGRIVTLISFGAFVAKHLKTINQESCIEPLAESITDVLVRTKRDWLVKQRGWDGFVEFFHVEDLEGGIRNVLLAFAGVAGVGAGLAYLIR

[2] = test system: BCL-2, MCL-1, BIM, PUMA protein levels; experiment: Western blotting of apoptosis proteins in PDX samples; assay type: in vivo; conditions: PDX models, Western blot
Protocol: PDX models (including 8 gastric cancers and 3 esophageal cancers) were selected for trials with BCL-2/BCL-XL dual inhibitor Compound A. Models were treated with 100 mg/kg twice weekly dosing schedule for three weeks, and tumor tissues were harvested for complexes analysis (specified in the figure panels) with MSD methods. Pharmacodynamics (PD) and biomarker studies of Compound A treatment were performed by MSD and Western blotting (WB) assays. Specifically, protein extraction was performed with the sample, level of protein complex was measured by MSD methods, and the level of protein was measured by Western Blotting. TGI for each animal was calculated.

BCL-XL:BIM complex [3] = target: T1, BCL-XL:BIM complex; experiment: MSD advanced ELISA of BCL-XL:BIM complex in RS4;11 cells; assay type: cell-based; design: endogenous in cells; host or cells: Toledo; conditions: treated for 24 hours
Protocol: (§1) MSD advanced ELISA is a method similar to enzyme-linked immunosorbent assay (ELISA) except MSD uses electrochemiluminescence (ECL) as a detection technique while ELISA uses a colormetric reaction. In general, a solution (e.g. cell lysate) containing the protein/complex of interest is added to a substrate (e.g., wells in a plate) coated with a capture antibody specifically binding to a protein of interest. After washing, a second antibody specifically binding to a partner protein that binds to the protein of interest is added. The second antibody (or an antibody binding to the second antibody) is linked to an ECL agent, e.g. a ruthenium (Ru) metal ion, and the substrate contains an electrode. In the presence of the partner protein/protein complex, the second antibody binds to the protein complex, and the ruthenium ion will be close enough proximity to the electrode to trigger an oxidation-reduction reaction that produces light which can be detected by a CCD camera. Compared to a traditional ELISA, MSD has many advantages such as higher sensitivity, better dynamic range, less matric effects, less sample required and better efficiencies. As a result, MSD can be used to detect a protein complex in cell lysate.
(§2) Toledo (a diffuse large B cell lymphoma line) and RS4;11 (an acute lymphocytic leukemia line) were chosen for the study. Cells were treated for 24 hours with compounds specified in FIGS. 6A and 7A (Toledo), and FIGS. 6B and 7B (RS4;11; Compound B, ABT-737 and ABT-263 were used the same concentrations for each cell line) and harvested for complex analysis. Both BCL-2:BIM and BCL-XL:BIM complex were analyzed following previously established MSD advanced ELISA methods.

BCL-XL:BIM complex [4] = target: T1, BCL-XL:BIM complex; experiment: MSD advanced ELISA of BCL-XL:BIM complex in Toledo cells; assay type: cell-based; design: endogenous in cells; host or cells: Toledo; conditions: treated for 24 hours
Protocol: as §1, §2

BCL-2:BIM complex = BCL-2:BIM complex (Homo sapiens, UniProt P10415); experiment: MSD advanced ELISA of BCL-2:BIM complex in Toledo and RS4;11 cells; assay type: cell-based; conditions: treated for 24 hours
Sequence of BCL-2:BIM complex (P10415 whole entry, one chain of several): as the sequence (P10415 whole entry) above
Protocol: Toledo (a diffuse large B cell lymphoma line) and RS4;11 (an acute lymphocytic leukemia line) were chosen for the study. […] Both BCL-2:BIM and BCL-XL:BIM complex were analyzed following previously established MSD advanced ELISA methods.

## Cc1c(S(C)(=O)=O)c(-c2cc(F)cc(N3CCN(c4ccc(NS(=O)(=O)c5ccc(N[C@H](CCN6CCC(C(=O)OCCP(=O)(O)O)CC6)CSc6ccccc6)c(S(=O)(=O)C(F)(F)F)c5)cc4)CC3)c2)c(-c2ccc(Cl)cc2)n1C(C)C [Compound A, (R)-2-(1-(3-(4-(N-(4-(4-(3-(2-(4-chlorophenyl)-1-isopropyl-5-methyl-4-(methylsulfonyl)-1H-pyrrol-3-yl)-5-fluorophenyl)piperazin-1-yl)phenyl)sulfamoyl)-2-(trifluoromethylsulfonyl)phenylamino)-4-(phenylthiol)butyl)piperidine-4-carbonyloxy)ethylphosphonic acid]
Cancer cell lines
  cell growth inhibitory activity: nanomolar potencies
caspase-3 and PARP
  cleavage of caspase-3 and PARP: effectively induces cleavage of caspase-3 and PARP
BCL-XL:BIM complex [1]; PDX models, 100 mg/kg twice weekly for three weeks, MSD assay
  level of BCL-XL:BIM complex after treatment: dropped
BCL-XL:BIM complex [1]; in PDX
  targeting of BCL-XL versus BCL-2 complex: better in targeting BCL-XL than BCL-2 complex
BCL-xL
  IC50: 4.4 nM
BCL-w
  IC50: 9.3 nM
BCL-2
  IC50: 1.6 nM
Mcl-1 protein
  affinity to Mcl-1 protein: weak affinity
[2]
  BCL-2 and MCL-1 anti-death protein levels after treatment: significantly or in trend increases
  pro-death proteins BIM or PUMA levels after treatment: but not pro-death proteins BIM or PUMA

## CN(C)CC[C@H](CSc1ccccc1)Nc1ccc(S(=O)(=O)NC(=O)c2ccc(N3CCN(Cc4ccccc4-c4ccc(Cl)cc4)CC3)cc2)cc1[N+](=O)[O-] [ABT-737]
BCL-XL:BIM complex [3]
  disruption of BCL-XL:BIM complex: almost no disruption of BCL-xL:BIM complex
BCL-XL:BIM complex [4]
  disruption of BCL-XL:BIM complex: much less disruption of BCL-XL:BIM complex than Compound B

## Cc1c(S(C)(=O)=O)c(-c2cc(F)cc(N3CCN(c4ccc(NS(=O)(=O)c5ccc(N[C@H](CCN6CCC(C(=O)O)CC6)CSc6ccccc6)c(S(=O)(=O)C(F)(F)F)c5)cc4)CC3)c2)c(-c2ccc(Cl)cc2)n1C(C)C [Compound B, (R)-1-(3-(4-(N-(4-(4-(3-(2-(4-chlorophenyl)-1-isopropyl-5-methyl-4-(methylsulfonyl)-1H-pyrrol-3-yl)-5-fluorophenyl)piperazin-1-yl)phenyl)sulfamoyl)-2-(trifluoromethylsulfonyl)phenylamino)-4-(phenylthio)butyl)piperldine-4-carboxylic acid]
BCL-XL:BIM complex [3]
  disruption of BCL-XL:BIM complex: more potently disrupted BCL-XL:BIM than BCL-2:BIM complex
BCL-XL:BIM complex [4]
  disruption of BCL-XL:BIM complex: more potently disrupted BCL-XL:BIM than BCL-2:BIM complex

## CC1(C)CCC(c2ccc(Cl)cc2)=C(CN2CCN(c3ccc(C(=O)NS(=O)(=O)c4ccc(N[C@H](CCN5CCOCC5)CSc5ccccc5)c(S(=O)(=O)C(F)(F)F)c4)cc3)CC2)C1 [ABT-263]
BCL-2:BIM complex
  change in BCL-2:BIM complex: reduction in BCL-2:BIM complex
BCL-XL:BIM complex [3]
  disruption of BCL-XL:BIM complex: much less disruption of BCL-XL:BIM complex than Compound B
BCL-XL:BIM complex [4]
  disruption of BCL-XL:BIM complex: much less disruption of BCL-XL:BIM complex than Compound B
